Experimental data as given in PubChem BioAssay AID2060908 (Molecular Pharmacology Branch, DTP, NCI, 2025).

Tested on: 186277-243-T-J2-PDC complex spheroids, viability
Assay: Anticancer human tumor 186277-243-T-J2-PDC patient-derived colon adenocarcinoma cell line growth inhibition [RAS]
Conditions: for viability, T/C: stronger effect = lower value
Procedure, shortened: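 Agents were tested in combination matrices in half-log decrements from a top concentration at or near clinical Cmax (10 microM if undetermined). Targets were multi-cell spheroids of tumour lines plus HUVEC and MSC stromal cells.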
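Further: spheroids exposed to compounds for 7 days before viability read.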

CCn1c(-c2cc(N3CCN(C)CC3)cnc2C(C)OC)c2c3cc(ccc31)-c1csc(n1)CC(NC(=O)C1CC1C)C(=O)N1CCCC(N1)C(=O)OCC(C)(C)C2 (stereo not drawn)
viability, T/C (compound 0.000949 µM): 105% [middle of 8 runs]
viability, T/C (compound 0.00949 µM): 55.2% [middle of 8 runs]
viability, T/C (compound 0.03 µM): 15.2% [middle of 8 runs]
viability, T/C (compound 0.0949 µM): 7.7% [middle of 7 runs]
viability, T/C (compound 0.3 µM): 6.43% [middle of 8 runs]
IC50 (compound alone, run of 05/20/2024): 10.4 nM [middle of 8 runs]

CC(C)NCC(C(=O)N1CCN(c2ncnc3c2C(C)CC3O)CC1)c1ccc(Cl)cc1 (stereo not drawn) + CCn1c(-c2cccnc2C(C)OC)c2c3cc(ccc31)N1CCOC(CC(NC(=O)C(C(C)C)N(C)C(=O)C3(F)CCN(C(=O)C#CC(C)(C)N(C)C)CC3)C(=O)N3CCCC(N3)C(=O)OCC(C)(C)C2)C1
IC50 (curve of first compound, second compound 0.000949 µM): 1900 nM
IC50 (curve of first compound, second compound 0.003 µM): 1870 nM
IC50 (curve of first compound, second compound 0.00949 µM): 2290 nM
IC50 (curve of first compound, second compound 0.03 µM): 1380 nM
IC50 (curve of first compound, second compound 0.0949 µM): 726 nM
IC50 (curve of first compound, second compound 0.3 µM): 349 nM
viability, T/C (second compound 0.000949 µM, first compound 0.0316 µM): 88.1%
viability, T/C (second compound 0.000949 µM, first compound 0.1 µM): 96.7%
viability, T/C (second compound 0.000949 µM, first compound 0.316 µM): 108%
viability, T/C (second compound 0.000949 µM, first compound 1 µM): 69%
viability, T/C (second compound 0.000949 µM, first compound 3.16 µM): 40.5%
viability, T/C (second compound 0.000949 µM, first compound 10 µM): 29.4%
viability, T/C (second compound 0.003 µM, first compound 0.0316 µM): 83.4%
viability, T/C (second compound 0.003 µM, first compound 0.1 µM): 83.4%
viability, T/C (second compound 0.003 µM, first compound 0.316 µM): 88.2%
viability, T/C (second compound 0.003 µM, first compound 1 µM): 62.8%
viability, T/C (second compound 0.003 µM, first compound 3.16 µM): 39.9%
viability, T/C (second compound 0.003 µM, first compound 10 µM): 29.4%
viability, T/C (second compound 0.00949 µM, first compound 0.0316 µM): 90.2%
viability, T/C (second compound 0.00949 µM, first compound 0.1 µM): 82.8%
viability, T/C (second compound 0.00949 µM, first compound 0.316 µM): 89.2%
viability, T/C (second compound 0.00949 µM, first compound 1 µM): 67%
viability, T/C (second compound 0.00949 µM, first compound 3.16 µM): 43.9%
viability, T/C (second compound 0.00949 µM, first compound 10 µM): 28%
viability, T/C (second compound 0.03 µM, first compound 0.0316 µM): 104%
viability, T/C (second compound 0.03 µM, first compound 0.1 µM): 95.8%
viability, T/C (second compound 0.03 µM, first compound 0.316 µM): 108%
viability, T/C (second compound 0.03 µM, first compound 1 µM): 57.3%
viability, T/C (second compound 0.03 µM, first compound 3.16 µM): 36.6%
viability, T/C (second compound 0.03 µM, first compound 10 µM): 25.3%
viability, T/C (second compound 0.0949 µM, first compound 0.0316 µM): 99%
viability, T/C (second compound 0.0949 µM, first compound 0.1 µM): 106%
viability, T/C (second compound 0.0949 µM, first compound 0.316 µM): 72%
viability, T/C (second compound 0.0949 µM, first compound 1 µM): 40.6%
viability, T/C (second compound 0.0949 µM, first compound 3.16 µM): 34.7%
viability, T/C (second compound 0.0949 µM, first compound 10 µM): 18.7%
viability, T/C (second compound 0.3 µM, first compound 0.0316 µM): 99.2%
viability, T/C (second compound 0.3 µM, first compound 0.1 µM): 83.3%
viability, T/C (second compound 0.3 µM, first compound 0.316 µM): 51.8%
viability, T/C (second compound 0.3 µM, first compound 1 µM): 27.9%
viability, T/C (second compound 0.3 µM, first compound 3.16 µM): 20.4%
viability, T/C (second compound 0.3 µM, first compound 10 µM): 15.8%
